Viability data for 60 compounds are collected here from paper PMC12040169 (PLOS Biology, 2025).

The structures appear in SMILES notation.

This data set can be described thus: in vitro. The note with it: human, hela cells, % viability.

As for `O=C(O)C1Cc2nc[nH]c2C(c2ccc(F)cc2)N1` (stereo not drawn) [CBK286970], the viability at 28.5 h, 10 µM came to 86.1%. The same measure for `O=C(O)CCCC(=O)N1CCN(C(=O)c2sc3cc(Cl)ccc3c2Cl)CC1` [CBK286973]: 91%; for `Cc1nc2ccc(C(=O)O)cc2c2c1CC(CN)O2` (stereo not drawn) [CBK286974]: 97.7%; for `O=C(Cc1ccccc1)NC(Cc1ccc(Cl)cc1)C(=O)O` (stereo not drawn) [CBK286976]: 92.7%. Regarding `Cc1ccc(N(CC(=O)O)S(C)(=O)=O)cc1C` [CBK286978], the viability at 28.5 h, 10 µM was 87.1%. The figure for `N#Cc1ccc(NC(=O)CC2(CC(=O)O)CCCC2)cc1` [CBK286979] is 89.5%. The figure for `O=C(NCc1ccc(C(=O)O)cc1)NC1CCCCC1` [CBK286980] is 84.5%; for `O=C(O)c1oc2ccccc2c1CSc1ccccn1` [CBK286981] it is 89.5%.

As for `O=C(O)C1C2C=CC(O2)C1C(=O)NCCCc1ccccc1` (stereo not drawn) [CBK286982], the viability at 28.5 h, 10 µM was 93.3%. As to `O=C(O)CC(c1ccccc1)c1ccc2c(c1)OCO2` (stereo not drawn) [CBK286983], the viability at 28.5 h, 10 µM is 87.8%. The same measure for `O=C(O)CC(Cc1ccc(Cl)cc1)C(=O)NCc1ccccc1` (stereo not drawn) [CBK286984]: 89.4%. On to `Cc1ccc(S(=O)(=O)NC(C(=O)O)c2ccccc2)cc1` (stereo not drawn) [CBK286985], for which the viability at 28.5 h, 10 µM came out at 106%. The same measure for `Cc1ccc(-n2nc(C(=O)O)c(C)c(C#N)c2=O)cc1C` [CBK286987]: 93.3%; for `CS(=O)(=O)N(CC(=O)O)c1cccc(C(F)(F)F)c1` [CBK286988]: 87.8%; for `COc1ccc(-c2cc(C(=O)O)nn2C2CCS(=O)(=O)C2)cc1` (stereo not drawn) [CBK286990]: 87.8%. `O=C(O)CCSCC(=O)c1ccc(OC(F)F)cc1` [CBK286991]: the viability at 28.5 h, 10 µM was 84.6%. The same measure for `CCc1nnc(SCc2cccc(C(=O)O)c2)o1` [CBK286993]: 95.7%. The same measure for `O=C(O)C1CSC(c2ccc(-c3cccc(Cl)c3)o2)N1` (stereo not drawn) [CBK286997]: 97.5%; for `Cc1cc2n(n1)C(c1ccc(C(=O)O)cc1)Nc1ccccc1-2` (stereo not drawn) [CBK287000]: 80.8%. The figure for `CC(C)(C)N1C(=O)c2ccc(C(=O)Nc3ccccc3C(=O)O)cc2C1=O` [CBK287004] is 112%. On to `O=C(O)c1ccccc1N1C(=O)C2CC=C(Cl)CC2C1=O` (stereo not drawn) [CBK287007], for which the viability at 28.5 h, 10 µM came to 94.4%.

Take `O=C(O)c1ccc2c(c1)C1C=CCC1C(c1cccc([N+](=O)[O-])c1)N2` (stereo not drawn) [CBK287008]: the viability at 28.5 h, 10 µM worked out at 94.7%.

As for `O=C(N[C@@H](Cc1ccc(O)cc1)C(=O)O)OCc1ccccc1` [CBK287012], the viability at 28.5 h, 10 µM was 94.8%.

Consider `CC(C)(C)c1ccc(OCC(=O)Nc2ccc(OCC(=O)O)cc2)cc1` [CBK287013], for which the viability at 28.5 h, 10 µM was 113%. The figure for `Cn1cc(NC(=O)c2ccc(COc3c(F)c(F)cc(F)c3F)o2)c(C(=O)O)n1` [CBK287014] is 98.5%. The figure for `O=C(O)CCC(=O)Nc1ccccc1Sc1ccc(Cl)cc1` [CBK287015] is 99.4%. The figure for `COc1cc(S(=O)(=O)Nc2ccc(CC(=O)O)cc2)ccc1Cl` [CBK287019] is 107%; for `CC(=O)Nc1ccc(N2CC34C=CC(O3)C(C(=O)O)C4C2=O)cc1` (stereo not drawn) [CBK287020] it is 100%.

On to `COc1ccc(C(=O)Nc2ccccc2C(=O)NCCCC(=O)O)cc1` [CBK287024], for which the viability at 28.5 h, 10 µM is 111%. The same measure for `Cc1ccc(NC(=O)COc2ccccc2/C=C/C(=O)O)cc1C` [CBK287026]: 111%. Consider `Cc1ccccc1OCC(=O)Nc1ccc(C(=O)O)c(Cl)c1` [CBK287027], for which the viability at 28.5 h, 10 µM came to 83.6%. The same measure for `COc1ccc(C(=O)O)cc1CN1CCOCC1` [CBK287029]: 102%; for `COc1cc(C(=O)O)ccc1Oc1cnn(-c2ccccc2)c(=O)c1Cl` [CBK287032]: 94.9%. Take `CC(=O)c1c(C(C)=O)c(C)n(-c2ccc(C(=O)O)cc2)c1C` [CBK287036]: the viability at 28.5 h, 10 µM worked out at 90.9%.

Take `O=C(O)c1ccc(OCCN2CCOCC2)cc1` [CBK287038]: the viability at 28.5 h, 10 µM came out at 94.5%. The figure for `CCC(C(=O)O)N1C(=O)NC2C1N(C)C(=O)N2C` (stereo not drawn) [CBK287039] is 79.9%; for `O=C(CN1C(=O)c2ccccc2C1=O)Nc1cccc(C(=O)O)c1` [CBK287040] it is 110%; for `O=C(CCCN1C(=O)c2ccccc2C1=O)Nc1ccc(C(=O)O)cc1` [CBK287043] it is 94.2%. Regarding `COc1cc(CNc2ccccc2Cl)ccc1OCC(=O)O` [CBK287045], the viability at 28.5 h, 10 µM stood at 89.7%.

Consider `O=C(Cc1ccccc1)Nc1ccc(C(=O)O)cc1NC(=O)Cc1ccccc1` [CBK287049], for which the viability at 28.5 h, 10 µM is 108%. The same measure for `Cc1c(-c2ccc(OCC(N)=O)cc2)nc2ccc(Br)cc2c1C(=O)O` [CBK287050]: 93.1%; for `Cc1nn(Cc2ccc(Cl)cc2)c(C)c1NC(=O)CCC(=O)O` [CBK287051]: 88.5%; for `NC(CC(=O)O)c1ccc(OCCc2ccccc2)cc1` (stereo not drawn) [CBK287053]: 91.6%. The figure for `O=C(O)CCc1ccc(S(=O)(=O)NCc2ccccc2)cc1` [CBK287054] is 79.8%; for `O=C(O)CCCn1cc(NC(=O)CCc2ccccc2)cn1` [CBK287055] it is 86.4%. The figure for `O=C(O)C(Cc1c[nH]c2ccccc12)N1Cc2ccccc2C1=O` (stereo not drawn) [CBK287056] is 82%; for `O=C(NC1CCCCC1)c1cc(NC(=O)c2ccccc2C(=O)O)ccc1Cl` [CBK287062] it is 96.3%.

As to `COc1ccc(-c2nc3ccccn3c2CN2CCC(C(=O)O)CC2)cc1OC` [CBK287063], the viability at 28.5 h, 10 µM turned out to be 89.9%. Turning to `O=C(O)COCC(=O)NC12CC3CC(CC(C3)C1)C2` [CBK287065], the viability at 28.5 h, 10 µM came out at 97.9%. The figure for `Cc1n[nH]c(NC(=O)/C=C/C(=O)O)c1-c1ccc(F)cc1` [CBK287068] is 96.7%. As to `Cc1oc2ccc(NS(=O)(=O)c3ccccc3)cc2c1C(=O)O` [CBK287071], the viability at 28.5 h, 10 µM amounted to 95.3%.

As to `O=C(O)CC(C(=O)N1CCOCC1)N1CCCCC1` (stereo not drawn) [CBK287074], the viability at 28.5 h, 10 µM turned out to be 98.7%.

Consider `O=C(O)c1ccc2[nH]cc(CN3CCOCC3)c2c1` [CBK287081], for which the viability at 28.5 h, 10 µM worked out at 89.9%. As for `O=C(O)c1ccc(NC2=NS(=O)(=O)c3ccccc32)cc1` [CBK287084], the viability at 28.5 h, 10 µM was found to be 84.4%. The same measure for `O=C(O)CC1SC(=O)N(c2ccccc2)C1=O` (stereo not drawn) [CBK287085]: 78.8%; for `O=C(O)c1ccc(Cl)c2c1C1C=CCC1C(c1ccccn1)N2` (stereo not drawn) [CBK287087]: 86.9%; for `COc1ccccc1C1CC(c2ccccc2)=NN1C(=O)CCC(=O)O` (stereo not drawn) [CBK287088]: 83.4%. The figure for `CCn1c(SCC(=O)O)nnc1-c1c[nH]c2ccccc12` [CBK287089] is 85.9%; for `CC1(c2ccccc2)CC(=O)N(CCC(=O)O)C1=O` (stereo not drawn) [CBK287091] it is 83.3%. The figure for `CN1CCN(C(=O)C2CCCCC2C(=O)O)CC1` (stereo not drawn) [CBK287092] is 86.4%.

As a reminder, the viability is a read-out of living cells in per cent, often relative to untreated cells.
